Measured values from publication PMC7155171, “Probing the Open Global Health Chemical Diversity Library for Multistage-Active Starting Points for Next-Generation Antimalarials” (ACS Infectious Diseases, 2020).
Read-outs that look alike come from different tables or passages of the source.

Key:
[1] = system: P. falciparum Dd2 (PfLuc) line expressing firefly luciferase, asexual blood stage; test: microbe, parasite or virus in culture; format: cell-based, Plasmodium falciparum; settings: Plasmodium falciparum
P. falciparum Dd2 = test: SYBR green I asexual blood stage proliferation assay (96 h); format: cell-based, Plasmodium falciparum; settings: Plasmodium falciparum, DD2, 11-pt dose response, 96hr
[2] = DD2, read-out: P. falciparum Luciferase ABS 11-pt Reconfirmation Dose Response (48hr): IC50, 11-pt dose response, 48hr
[3] = DD2, 8-pt dose response, 96hr, read-out: P. falciparum Luciferase ABS 8-pt Reconfirmation Dose Response (96hr): IC50
[4] = DD2, 8-pt dose response, 96hr, read-out: P. falciparum Luciferase ABS 8-pt Reconfirmation Dose Response (96hr): Maximum inhibition (%)
[5] = DD2, 11-pt dose response, 48hr, read-out: P. falciparum Luciferase ABS 11-pt Reconfirmation Dose Response (48hr): Maximum inhibition (%)
[6] = DD2, 11-pt dose response, 96hr, read-out: P. falciparum Luciferase ABS 11-pt Reconfirmation Dose Response (96hr): IC50
[7] = DD2, 11-pt dose response, 96hr, read-out: P. falciparum Luciferase ABS 11-pt Reconfirmation Dose Response (96hr): Maximum inhibition (%)
[8] = read-out: P. falciparum Sybr Green I ABS 11-pt Reconfirmation Dose Response (96hr): IC50
[9] = DD2, read-out: CDD P. falciparum Luciferase ABS 11-pt Reconfirmation Dose Response (48hr): IC50 (μM), 11-pt dose response, 48hr
[10] = DD2, 8-pt dose response, 96hr, read-out: CDD P. falciparum Luciferase ABS 8-pt Reconfirmation Dose Response (96hr): IC50
[11] = DD2, 11-pt dose response, 48hr, read-out: CDD P. falciparum Luciferase ABS 11-pt Reconfirmation Dose Response (48hr): Maximum inhibition (%)
[12] = DD2, 11-pt dose response, 96hr, read-out: CDD P. falciparum Luciferase ABS 11-pt Reconfirmation Dose Response (96hr): IC50
[13] = DD2, 11-pt dose response, 96hr, read-out: CDD P. falciparum Luciferase ABS 11-pt Reconfirmation Dose Response (96hr): Maximum inhibition (%)
[14] = Sybr Green I, read-out: CDD P. falciparum Sybr Green I ABS 11-pt Reconfirmation Dose Response (96hr): IC50
[15] = Sybr Green I, read-out: CDD P. falciparum Sybr Green I ABS 11-pt Reconfirmation Dose Response (96hr): Maximum inhibition (%)
[16] = DD2, 8-pt dose response, 96hr, read-out: CDD P. falciparum Luciferase ABS 8-pt Reconfirmation Dose Response (96hr): Maximum inhibition (%)
[17] = 96 h incubation, Dd2 luciferase, read-out: 96 hour Pfluc IC50
[18] = read-out: P. falciparum Sybr Green I ABS 11-pt Reconfirmation Dose Response (96hr): Maximum inhibition (%)

Compound	IC50 [1, 2] [µM]	IC50 [1, 3] [µM]	Emax [1, 4] [%]	Emax [1, 5] [%]	IC50 [1, 6] [µM]	Emax [1, 7] [%]	IC50 (P. falciparum Dd2; [8]) [nM]	IC50 [1, 9] [µM]	IC50 [1, 10] [µM]	Emax [1, 11] [%]	IC50 [1, 12] [µM]	Emax [1, 13] [%]	IC50 (P. falciparum Dd2; [14]) [nM]	Emax (P. falciparum Dd2; [15]) [%]	Emax [1, 16] [%]	IC50 [1, 17] [µM]	Emax (P. falciparum Dd2; [18]) [%]
Cc1cc(Cl)ccc1S(=O)(=O)NCC(C)N1CCN(C)CC1 (stereo not shown) [DDD01071406]	6.35	1.66	87.3	56.6	4.93	86.6	> 4160										
COc1ccc(C(=O)NCCCOC(C)c2ccccc2)c(OC)c1 (stereo not shown) [DDD01071935]								9.88	1.03	67.4	3.26	90.2	> 4160	72.8			
OCCN1CCC(CNCc2ccc(Br)cc2)CC1 [DDD01072406]								2.84	0.53	94.9	0.749	99.6	2010	92.7	95.5		
O=C(c1ccccc1)C1CCN(Cc2cc3c(cc2O)CCC3)CC1 [DDD01073482]								1.73	0.6	94.9	0.607	99.4	2300		93.1		
CC(NCC1CCN(CCO)CC1)c1ccc(F)c(Cl)c1 (stereo not shown) [DDD01073649]								3.46	1.04	94.4	0.802	99.5	1900	91.9	87	0.8	
CC(NCC1CCN(CCO)CC1)c1ccc(OC(F)(F)F)cc1 (stereo not shown) [DDD01073716]								3.68	0.46		0.546	99.2	2880	95.9	95.5	0.55	
CC(NCC1CCN(CCO)CC1)c1cccc(Cl)c1 (stereo not shown) [DDD01073717]								3.01	0.56	93.9	0.988	99.8	1320	92.1	94.9		
CC(NCC1CCN(CCO)CC1)c1ccc(Cl)cc1 (stereo not shown) [DDD01073718]								2.47	0.81		0.695	98.2	844				
CC(NCC1CCN(CCO)CC1)c1ccc(C(F)(F)F)cc1 (stereo not shown) [DDD01073719]								4.64	0.52		0.614	98.9	2650	92.8	92.5	0.61	
COc1ccc(CN2CCNC(=O)CC2)cc1SC(F)(F)F [DDD01074373]	> 4.16	1.28		57.7	0.735	70.4	> 4160										51.3
CCN(CC)Cc1ccccc1NC(=O)N(C)Cc1ccccc1O [DDD01074443]								3.95	0.88	89.7	3.26	95.8	6280	87.8	90		
COCCOc1ccccc1CNCC1COC2(CCCC2)O1 (stereo not shown) [DDD01074854]	> 12.5	1.89	84.3	29.8	2.71	75.6	2130										71.9
CCc1cc(CNCc2ccccc2N(C)C2CCN(C)CC2)on1 [DDD01074859]								> 12.5	0.92	55.6	3.22	82	9570	72	83.3		
CN1CCC(N(C)c2ccccc2CNCc2ccco2)CC1 [DDD01074928]								1.71	0.27	80.4	0.211	97.1	1100	94.3	92.9	0.21	
Cc1noc(C)c1CNCc1ccccc1N(C)C1CCN(C)CC1 [DDD01074938]								> 12.5	0.59	61.9	1.55	86.7	2600	85.6	91.9		
